Publication PMC8452690, “Structural basis for small molecule targeting of Doublecortin Like Kinase 1 with DCLK1-IN-1” (Communications Biology, 2021)
Read-outs that look alike come from different tables or passages of the source. Marks after values point to notes of the source that are not given here.

How the values were obtained:
DCLK1-FL1Δ D511N = target: T1, DCLK1-FL1Δ D511N (Homo sapiens, UniProt O15075, D511N); experiment: SPR binding to immobilised DCLK1-FL1Δ D511N (non-phosphorylated); details: for Kd: 18 °C, DCLK1 FL1Δ D511N immobilised, mean ± SEM
T1 construct: DCLK1-FL1Δ (residues 50-686); 8XHis tag with TEV protease cleavage site (N); made in house; host or cells: Escherichia coli C41(DE3)
Description: SPR studies were carried out on a Biacore 2000 instrument (Cytivia). Proteins were immobilised at 25 °C using standard amine coupling to a CM5 chip (Cytivia) in immobilisation buffer consisting of 10 mM HEPES pH 7.4, 150 mM NaCl, 1 mM TCEP, 0.005% Tween P20, 1% (v/v) DMSO. To the active flow, cells were coupled either DCLK1-FL1Δ D511N or WT to a final density of approximately 7000 RU, followed by surface deactivation with 1 M ethanolamine. For each protein, coupling was performed at a concentration of 2 µM protein in 10 mM sodium acetate buffer pH 4.0, 1% (v/v) DMSO final, in the presence 10 µM of the moderate affinity compound FMF-03-149-01 (IC50 ~400 nM)[28] to help to stabilise the kinase domain during immobilsiation at low pH. A blank immobilisation was performed on the reference flow cell.
Binding experiments were performed at 18 °C in running buffer consisting of 20 mM HEPES, pH 7.4, 150 mM NaCl, 1 mM tris(2-carboxyethyl)phosphine (TCEP), 0.005% (v/v) Tween-P20, and 2% (v/v) DMSO. Compounds (10 mM stocks in 100% DMSO) were diluted in DMSO to 500 µM (DCLK1-NEG) or 25 µM (all other compounds) then in running buffer (without DMSO) to achieve the starting concentration with a final DMSO concentration of 2% (v/v). Samples were then serially titrated in running buffer containing 2% (v/v) DMSO to prepare each final concentration series (seven-point, three-fold serial dilution, 10 µM−13.7 nM for DCLK1-NEG, or 500−0.68 nM for all other compounds). Solutions were injected in multi-cycle format (in duplicate) without regeneration (contact time 80 s, flow rate 75 μL/min, dissociation time 600 s), with an extra wash (50% DMSO) after each injection.
Steady-state/kinetic binding data were fitted using the S200 BIAevaluation software (GE Healthcare). Sensorgrams from reference surfaces and blank injections were subtracted from the raw data (double-referencing), followed by solvent correction. Kinetic rate constants (kon and koff values) were obtained by fitting to 1:1 Langmuir binding model. Reported binding data represent mean ± SEM for three or four independent experiments. The dissociative half-life life (t1/2) for each inhibitor complex with DCLK1 was calculated from the fitted dissociation rate constant (koff), according to the equation 1 (t1/2 = ln(2)/koff.)

[1] = target: T2, DCLK1-FL1Δ D511N tubulin polymerisation (MAP function) (Homo sapiens, UniProt O15075, D511N); experiment: Tubulin polymerisation and pelleting assay with DCLK1-FL1Δ D511N; format: biochemical
T2 construct: DCLK1-FL1Δ (residues 50-686); 8XHis tag with TEV protease cleavage site (N); made in house; host or cells: Escherichia coli C41(DE3)
T2 sequence (O15075 50-686 isoform O15075-2 D511N): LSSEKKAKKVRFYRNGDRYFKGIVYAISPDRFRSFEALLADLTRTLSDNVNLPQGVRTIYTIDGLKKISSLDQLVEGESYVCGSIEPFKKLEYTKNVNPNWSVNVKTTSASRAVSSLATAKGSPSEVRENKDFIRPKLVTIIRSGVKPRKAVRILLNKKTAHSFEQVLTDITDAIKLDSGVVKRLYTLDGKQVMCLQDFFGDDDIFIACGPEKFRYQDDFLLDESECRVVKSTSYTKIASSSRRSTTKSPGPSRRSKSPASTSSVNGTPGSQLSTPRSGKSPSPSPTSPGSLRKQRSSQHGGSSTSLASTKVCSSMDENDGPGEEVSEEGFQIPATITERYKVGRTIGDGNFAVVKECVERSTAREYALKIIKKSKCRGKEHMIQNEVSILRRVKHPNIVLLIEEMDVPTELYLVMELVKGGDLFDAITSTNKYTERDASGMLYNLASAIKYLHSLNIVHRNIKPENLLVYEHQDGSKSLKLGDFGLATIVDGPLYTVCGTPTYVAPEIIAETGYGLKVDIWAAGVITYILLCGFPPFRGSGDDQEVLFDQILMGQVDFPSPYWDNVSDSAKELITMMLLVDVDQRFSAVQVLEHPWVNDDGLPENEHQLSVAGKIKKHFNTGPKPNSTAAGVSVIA
Description: (§1) Tubulin polymerisation assays were performed in buffer containing 80 mM PIPES at pH 6.9, 2.0 mM MgCl2, 0.5 mM EGTA, 2.5 mM β,γ-Methyleneguanosine 5’-triphosphate, and 10 μM tubulin and 5 μM DCLK1 for 1 h at 37 °C. For tubulin polymerisation in the presence of inhibitors, various concentrations of the inhibitors were first incubated with DCLK1 and allowed to stand on ice for 5 min before adding this mix to the tubulin polymerisation reaction. Following the tubulin polymerisation, the reaction mix was pelleted at 20,000 g for 20 min and the supernatant and the pellet fractions were run on a 12% SDS gel. The data shown are representative of two independent experiments.

[2] = target: T2, DCLK1-FL1Δ D511N tubulin polymerisation (MAP function); experiment: Fluorescence-based Tubulin Polymerisation Assay with DCLK1-FL1Δ D511N; format: biochemical; details: 20 μM or 40 μM, fluorescence (Fig. 5e)
Description: (§2) Tubulin polymerisation assay were performed using the Microtubule Polymerisation/Depolymerisation Fluorescence Kit (Cytoskeleton #BK011P) in accordance with the manufacturer’s instructions. DCLK1 (4 μΜ) was added to 50 μL tubulin reaction mix containing Buffer 1 (80 mM PIPES at pH 6.9, 2.0 mM MgCl2, 0.5 mM EGTA, 10 μM fluorescent reporter), guanosine triphosphate stock solution at 100 mM, and tubulin (10 mg/ml) stock solution, as described by the manufacturer. Paclitaxel, a control of tubulin polymerisation, was tested at 3 μM, and Νocodazole, a tubulin polymerisation inhibitor, was tested at 80 μΜ. DCLK1-IN-1 was tested at 20 and 40 μΜ with buffer alone as controls. Polymerisation leads to fluorescence enhancement due to incorporation of a fluorescence reporter into polymerising microtubules and was measured by excitation at 355 nm and emission at 460 nm. Readings were taken every 20 s on EnVision Multimode Plate Reader. Each condition was tested in duplicate with two independent batches of protein.

tubulin = experiment: Tubulin polymerisation in the absence of DCLK1 (pelleting and fluorescence assays); format: biochemical; details: absence of DCLK1-FL1Δ D511N
Description: as §1
as §2, with “Paclitaxel, a control of tubulin polymerisation, was tested at 3 μM, and Νocodazole, a tubulin polymerisation inhibitor, was tested at 80 μΜ. DCLK1-IN-1 was tested at 20 and 40 μΜ with buffer alone as controls.” left out, “Each condition was tested in duplicate with two independent batches of protein.” left out

- kon, kinetic fitting (DCLK1-FL1Δ D511N): 5.1 ± 0.3 1/Ms (x 10^5)
- off-rate faster relative to FMF-03-055-01 or XMD8-85 (DCLK1-FL1Δ D511N; SPR): ~ 2 fold
- on-rate slower relative to FMF-03-055-01 or XMD8-85 (DCLK1-FL1Δ D511N; SPR): ~ 2 fold
- affinity weaker than FMF-03-055-01 or XMD8-85 (DCLK1-FL1Δ D511N; SPR KD, DCLK1-FL1Δ D511N): 4−5 fold
- Kd (DCLK1-FL1Δ D511N; SPR, read-out: KD, kinetic fitting (1:1 binding model)): 0.053 µM
- Kd (DCLK1-FL1Δ D511N; SPR, read-out: KD, steady state fitting): 0.07 ± 0.004 µM
- reduction in DCLK1 affinity compared to FMF-03-055-1 (DCLK1-FL1Δ D511N; discussion statement): five-fold reduction
- koff (DCLK1-FL1Δ D511N; read-out: koff, kinetic fitting): 0.027 ± 0.001 s⁻¹
- kon (DCLK1-FL1Δ D511N; read-out: kon (Fig. 5c)): 510000 ± 30000 M⁻¹ s⁻¹
- effect on DCLK1-FL1Δ D511N ability to polymerise tubulin ([1]; 20 μM or 40 μM, pelleting / SDS-PAGE (Fig. 5d)): did not impact
- aggregation and pelleting of DCLK1-FL1Δ D511N upon centrifugation ([1]; 40 μM, without tubulin polymerisation (Fig. 5d lanes 12, 13)): does not cause
- effect on DCLK1-FL1Δ D511N ability to polymerise tubulin [2]: did not impact
Compound: COc1cc(N2CCN(C)CC2)ccc1Nc1ncc2c(n1)N(C)c1ccccc1C(=O)N2CC(F)(F)F [DCLK1-IN-1]
- tubulin polymerisation and stabilisation by compound alone (tubulin): does not promote tubulin polymerisaton and stabilisation
